In publication PMC13198932, “Pyrazolone-based ERO1 inhibitors in ERO1-driven triple-negative breast cancer and SEPN1-related myopathy: Structure–activity relationship and therapeutic potential” (Pharmacological research, 2025):

Experiments:
[1] = biological target: T1, ERO1 in MDA-MB-231 breast cancer cells (Homo sapiens, UniProt Q96HE7); test: ERO1 redox state by non-reducing immunoblot in MDA-MB-231 cells; assay type: cell-based
T1 construct: Non-reducing Immunoblot of endogenous ERO1 in lysates of vehicle-treated MDAMB231; endogenous in cells; host or cells: MDA-MB-231
T1 sequence (Q96HE7 24-468): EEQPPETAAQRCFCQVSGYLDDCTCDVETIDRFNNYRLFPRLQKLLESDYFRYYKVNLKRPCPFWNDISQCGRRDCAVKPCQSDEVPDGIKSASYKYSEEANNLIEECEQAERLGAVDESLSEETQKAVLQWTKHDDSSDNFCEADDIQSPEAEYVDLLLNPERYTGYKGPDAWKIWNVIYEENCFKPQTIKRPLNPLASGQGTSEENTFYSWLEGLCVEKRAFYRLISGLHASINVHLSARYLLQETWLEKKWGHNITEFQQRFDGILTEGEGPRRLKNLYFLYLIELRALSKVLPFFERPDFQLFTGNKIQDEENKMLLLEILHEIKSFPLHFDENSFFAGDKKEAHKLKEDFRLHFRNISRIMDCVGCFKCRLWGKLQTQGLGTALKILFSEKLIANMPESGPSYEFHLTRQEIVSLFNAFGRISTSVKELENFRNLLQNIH
Experimental: MDAMB231 and E0771 cells were maintained in Dulbecco’s Modified Eagle’s Medium supplemented with 1 % fetal bovine serum and seeded at 70 % confluency in six-well plates one day prior to the experiment. Cells were treated with DTT (10 mM) and/or ERO1A inhibitors for 1–5 h. At the time of collection, phosphate-buffered saline containing 10 mM NEM was added, and cells were incubated on ice for 10 min in lysis buffer (50 mM Tris-HCl, pH 7.4; 150 mM NaCl; 1 % Triton X-100; 0.1 % SDS; 1 % sodium deoxycholate; protease inhibitors; and 10 mM NEM). Protein concentrations were determined using the BCA assay, and equal amounts of protein were separated by non-reducing SDS-PAGE followed by immunoblotting with a polyclonal antibody against ERO1A [33].

E0771 cells = test: MTS assay of metabolic activity in E0771 cells; assay type: cell-based, murine; conditions: E0771, dose-response, 24 h, 1 % FBS
Experimental: Six thousand cells (MDAMB231 and E0771) per well were seeded in 96-well plates and cultured in medium containing 1 % FBS. Cells were treated with varying concentrations of compounds and, after 24 h, incubated with MTS [3-(4,5-dimethylthiazol-2-yl)-5-(3-carboxymethoxyphenyl)-2-(4 sulfophenyl)2Htetrazolium]and PMS (phenazine methosulfate), following the instructions of the CellTiter 96® Aqueous Non-Radioactive Cell Proliferation Assay (Promega). Measurements were performed using a TECAN Infinite M200 plate reader with […] at 490 nm.

E0771 tumors = test: E0771 breast tumor model in syngeneic C57BL/6 J mice (tumor size, VEGFA ELISA, flow cytometry); assay type: in vivo; conditions: 10 mg/kg i.p. once daily for 10 days
Experimental: A 1:1 mixture of polyethylene glycol 400 (PEG400) (Merck, 8.17003.1000) and Cremophor EL (Sigma, C5135–500G) was used to dissolve I29 at a concentration of 10 mM and served as the vehicle control. Initially, I29 was suspended in PEG400, after which Cremophor EL was added to the solution. The mixture was then heated to 80 °C until the compound was fully dissolved. Both the compound and vehicle were diluted 1:10 in physiological saline immediately prior to administration to mice at a dose of 10 mg/kg.
E0771 cells (1 × 10^6) were injected subcutaneously into both flanks of 12 female C57BL/6 J mice. Once the primary tumors reached a volume of 100–200 mm^3 (palpable), the mice were randomized into two groups and treated with either I29 or vehicle (Cremophor and PEG400). I29 was administered intraperitoneally (i.p.) once daily for 10 consecutive days at a dose of 10 mg/kg. Twenty-four hours after the final injection, the mice were euthanized. Tumors were excised, weighed, and processed for flow cytometry analysis of immune cells and immune checkpoints, including PD-1 and PD-L1, as well as for VEGFA quantification by ELISA.
The procedure was described in detail in [29]. Briefly, primary subcutaneous tumors derived from E0771 cells were minced into small fragments and enzymatically digested with 0.5 mg/mL Collagenase IV (Sigma) and 40 μg/mL DNase I in RPMI 1640 medium for 30 min at 37°C. The resulting cells were resuspended in HBSS containing 0.5 % FBS and incubated at 4°C for 20 min with the following antibodies (BioLegend): CD45 BV650 (clone 104; 0.6/100), CD11b PerCP-Cy5.5 (clone M1/70; 0.3/100), Ly6C BV421 (clone HK1.4; 0.6/100), Ly6G AF700 (clone 1A8; 0.6/100), F4/80 PE-Cy7 (clone BM8; 0.3/100), PD-L1 APC (clone 10 F.9G2; 1/100), CD3 BV605 (clone 145–2C11; 0.6/100), CD4 AF700 (clone GK1.5; 0.6/100), CD8 BV785 (clone 53–6.7; 0.6/100), and PD1 (clone 29.F1A12; 0.6/100). Cell viability was determined using the LIVE/DEAD™ Fixable Near IR Viability Kit (Invitrogen, L34981). Samples were acquired using a Cytoflex LX flow cytometer with CytExpert software, and data were analyzed with Kaluza 2.0 software (Beckman Coulter).
Within the CD45 + leukocyte population, monocytic myeloid-derived suppressor cells (M) MDSCs (CD11b+Ly6G−Ly6Chi), polymorphonuclear granulocytic (PMN−) MDSCs (CD11b+Ly6G+Ly6Clo), and tumor-associated macrophages (TAMs; CD11b+Ly6Clo/−F4/80 +) were identified. Total T lymphocytes (CD3 +) were gated within CD45 + population, and frequencies of CD3 +CD4 + and CD3 +CD8 +T cells subsets were quantified. PD1 expression was evaluated on CD4 + and CD8 + T cells, while PD-L1 expression was assessed on MDSCs and TAMs. Expression levels are reported as geometric mean fluorescence intensity (gMFI).
For VEGFA measurements in E0771 tumors, tumors were weighed, and 50 mg of each was isolated and lysed in PBS containing protease inhibitors but no EDTA. Following homogenization, samples were frozen overnight and then subjected to repeated freeze-thaw cycles the next day. Insoluble debris was removed by high-speed centrifugation, and the supernatant was quantified using the BCA assay. A total of 190 μg of protein was then analyzed using a mouse VEGF Quantikine ELISA Kit (MMV00, R&D Systems).

| ERO1 reduction (redox state) ([1]; MDA-MB-231, 20 μM, Fig. Sup. 2A) | ERO1 reduction ([1]; MDA-MB-231, 20 μM, dose-response 1–20 μM, Fig. 4B) | concentration achieving complete ERO1 reduction ([1]; MDA-MB-231, dose-response 5–20 μM, Fig. Sup. 2B) [µM] | SMILES | metabolic activity (MTS assay) (E0771 cells) | ERO1 reduction compared with EN460 ([1]; MDAMB231, Fig. 4D) | tolerability (E0771 tumors; E0771 tumor-bearing mice) | PD-1 expression on CD4+ and CD8+ T cells (E0771 tumors; flow cytometry of tumors) | PD-L1 expression in monocytic myeloid-derived suppressor cells (M-MDSCs) (E0771 tumors; flow cytometry of tumors) | VEGFA levels in tumors (ELISA) (E0771 tumors; vs vehicle) | tumor volume (E0771 tumors; vs vehicle) | tumor weight (ex vivo) (E0771 tumors; vs vehicle) |
| --- | --- | --- | --- | --- | --- | --- | --- | --- | --- | --- | --- |
| efficiently reduced ERO1 | near-complete reduction of ERO1 | 15 | O=C(O)c1cc(N2N=C(C(F)(F)F)/C(=C\c3ccc(-c4ccccc4)o3)C2=O)ccc1Cl [EN460, reference compound] | – | – | – | – | – | – | – | – |
| – | – | – | O=C1/C(=C/c2ccc(-c3ccccc3)o2)C(C(F)(F)F)=NN1c1ccccc1F [I29] | superior efficacy of I29 over EN460 | reduced more efficiently ERO1 | well tolerated, with no overt signs of toxicity or weight loss observed | remained unchanged | statistically significant reduction | reduced | no significant differences | slight reduction in tumor weight |
